Measured values taken from patent US20240325548A1, “DYNAMIC BIOACTIVE SCAFFOLDS AND THERAPEUTIC USES THEREOF AFTER CNS INJURY” (Northwestern University, priority 2021, published 2024).

Key:
[1] = Miscibility and hydrogel formation of IKVAV PA / FGF2 PA binary systems (cryo-TEM, rheology); assay type: physicochemical; details: particularly at molar ratio 90:10
Experimental: For in vitro experiments: After lyophilization, PA powder was reconstituted in 150 mM NaCl and 3 mM KCl solution and adjusted to a pH of 7.4 using 1 μL additions of 1 M NaOH to ensure cell compatibility and material consistency. Different bioactive PAs were mixed at different mol % (see Table 3) and horn sonicated at 10% intensity, three times for 10 seconds. PA solutions were annealed at 80° C. for 30 min and then slowly cooled at 1° C. per minute to reach a final temperature of 27° C. using a thermocycler (Eppendorf PCR Thermocycler) for even and controlled heating and cooling of all samples. To prepare a PA coated substrate, 24-, 12-, or 6-well polystyrene cell culture plate or 12 mm and 18 mm glass coverslips (German Glass, Chemglass Life Science) were coated with poly-D-lysine (0.01 mg/mL, Sigma-Aldrich) for 3 h at 37° C. The plates were then rinsed with MilliQ water three times and allowed to dry for 4 h. PAs were painted on the coverslips or tissue culture plates by dragging a pipette (8-30 μL of annealed PAs (1 wt %)) to extrude a thin, even coating of material across the surface. PA coatings were incubated for 3 h at room temperature. The plates were gently rinsed with media before further use. For dye-labeled PAs experiments, Cy3-labeled-FGF2 PAs were co-assembled at 1 mol % with their corresponding non-labeled PA counterparts (see table 3).
Plunge-freezing for Cryo-TEM samples were prepared using a FEI model Vitrobot MarkIV (FEI). 7 μL of the sample solution ([PA]=0.05-0.1 wt % in H2O) was deposited on a plasma-cleaned TEM grid (300 mesh copper with lacey carbon, Electron Microscopy Sciences) and held in place with tweezers mounted on the Vitrobot. The specimen was blotted in an environment with 100% humidity at room temperature (blot force: 3, blot total: 1-2, wait time: 0.5-1 s, blot time: 3 s, drain time: 0-1 s), and plunged into a liquid ethane reservoir cooled by liquid nitrogen. The vitrified samples were stored in liquid nitrogen and then transferred to a Gatan 626 Cryo-TEM holder. Cryo-TEM images were obtained using a JEOL1230 electron microscope operating with a LaB6 filament at an accelerating voltage of 100 kV, equipped with a Gatan 831 CCD camera.
PA materials were prepared using the method described above for in vitro studies. An MCR302 Rheometer (Anton Paar) was used for all rheological studies. The instrument stage was set to 37° C. to simulate in vitro and in vivo conditions. The PA solution (150 μL) was placed on the sample stage and 30 μL of 25 mM CaCl2) solution was pipetted onto the underside of a 25 mm cone plate positioned above the material. […] The storage and loss modulus (G′ and G″) were recorded after a plateau occurred.

hNPCs = assay: Neuronal differentiation of hNPCs treated with IKVAV PAs (TUJ-1+ cells); assay type: cell-based, human
From the text: Neural progenitor cells (NPCs) were differentiated from human embryonic stem cells HUES 64 (Harvard University) (see FIG. 2C). In short, 70% confluent stem cell cultures grown in Matrigel (Thermo Fisher) coated plates with mTESR medium (STEMCELL Technologies), were switched to N2B27 medium (50% DMEM: F12, 50% Neurobasal, supplemented with NEAA, Glutamax, N2 and B27; Gibco) containing dual SMAD inhibitors (SB431542, DNSK International and LDN-193189, Tocris) for 12 days to induce the generation of neural progenitors. Neuralization was enhanced by supplementing medium with laminin from day 5 to 12. Next, neural rosettes were dissociated with neural rosette selection reagent (STEMCELL Technologies) to obtain NPCs, which are expanded in N2B27 (Gibco) medium supplemented with bFGF (Millipore). For experimentation in the different PA platforms, NPCs were dissociated with Accutase (Innovative Cell technology), and cultured in the distinct platforms with DMEM: F12+N2+B27 medium with hyclone penicillin-streptomycin (GE Healthcare) and ascorbic acid (0.2 μg/mL; Sigma-Aldrich).
For IKVAV PA treatments, hNPCs were cultured on ornithine coatings (German Glass, Chemglass Life Science) in 6 well and 24 well plates at a density of 500,000 cells/well and 80,000 cells/well respectively. hNPCs were treated with […] of IKVAV PAs ([PA]=6 mM, [KCl]=3 mM, [NaCl]=150 mM) or recombinant laminin protein (10 mg/mL) in solution. IKVAV PA2 and IKVAV PA5 were also mixed with 5 mM CaCl2) at a ratio PA:CaCl2) 6:1 to treat hNPCs. For 2D experiments, hNPCs were cultured on the different IKVAV PAs or laminin coatings in 6 well and 24 well plates at densities mentioned above. For co-assembled experiments, hNPCs were cultured on the different co-assembled PA coatings in 6 well and 24 well plates at a density of 400,000 cells/well and 50,000 cells/well respectively.
hNPCs were fed 4 times a week with DMEM: F12+N2^+B27 medium with hyclone penicillin-streptomycin and ascorbic acid. After 24 h, 72 h 1- or 2-weeks in vitro, cell lysates were harvested or fixed for WB or ICC, respectively. Three replicates per condition and at least three independent experiments were carried out for all conditions investigated.
For immunofluorescence, fixed primary cultures or free-floating tissue sections (40 m Thick) were incubated in blocking buffer containing 0.02% Triton-X (Sigma-Aldrich), 1% NHS (Gibco) and PBS 1× (Gibco). Samples were incubated with primary antibodies over night at 4° C. Alexa-488, Alexa-555 and/or Alexa-647 (1:500, Thermofisher) were used as secondary antibodies. DAPI (1:500, Thermofisher) was used to stain nuclei. Finally, the samples were mounted on coverslips with Immu-Mount (Fisher Scientific) solution for imaging.
For in vitro cell quantification, image files were imported into NIH Image J (1.51) software and the “analyze particles” and “cell counter” functions were used to measure the total number of cells in a determined area. Serial tissue sections were stained with NeuN and ChAT using free-floating immunostaining were quantified using Nikon Elements software. The rostral and caudal borders of the lesions were chosen as the first cross-sections that had NeuN staining in all four gray matter horns. 8 sections within the lesion were chosen per animal and expressed as number of neurons per section. Automated multichannel image acquisition, image stitching, and z-stack reconstruction ([…]) were carried out on a Nikon GasP R1 confocal microscope to image the entire selected cross-section for NeuN and Chat markers for all conditions.

Substance | miscibility and hydrogel formation when mixed with FGF2 PA1 or FGF2 PA2 [1] | percentage of induction of TUJ-1+ neuronal cells (hNPCs) [%]
C16-A2G2E4GIKVAV [IKVAV PA2] | both miscible and could form hydrogels with similar mechanical properties | 20.5±1
C16-G4E4GIKVAV [IKVAV PA5] | immiscibility | 20.7±1.2
C16-V2A2E4GIKVAV [IKVAV PA1] | immiscibility | 8.2±0.7
C16-VAG2E4GIKVAV [IKVAV PA4] | immiscibility | 14±1.2
